Values joined by “and” are separate entries in the source; they are usually repeats but may differ in a detail not shown here. Equal entries are not always repeated.
What was measured:
[1] = system: M. tuberculosis Erdman; assay: M. tuberculosis growth in broth culture (CFU); assay type: cell-based; settings: for Efficacy against M. tuberculosis growth in broth culture in comparison with MSO: 10, 100, 1000 μM, Example 6, FIG. 4; for Inhibition of growth of M. tuberculosis in broth culture: 10, 100 or 1000 μM, 6 weeks; for Inhibition of growth of M. tuberculosis in broth culture / Inhibition of M. tuberculosis in broth culture relative to MSO: Example 7; for Inhibition of M. tuberculosis in broth culture relative to MSO: at each of 10, 100, 1000 μM
[2] = system: M. tuberculosis Erdman in human macrophages (THP-1 cells); settings: 20, 200, 2000 μM, FIG. 5
[3] = molecular target: mammalian glutamine synthetase (MGS) (Homo sapiens, UniProt P15104); settings: cited from earlier work
[4] = molecular target: T1, mammalian gamma-glutamylcysteine synthetase (γ-GCS) (Homo sapiens, UniProt P48506); settings: cited from earlier work
T1 sequence (P48506 1-637): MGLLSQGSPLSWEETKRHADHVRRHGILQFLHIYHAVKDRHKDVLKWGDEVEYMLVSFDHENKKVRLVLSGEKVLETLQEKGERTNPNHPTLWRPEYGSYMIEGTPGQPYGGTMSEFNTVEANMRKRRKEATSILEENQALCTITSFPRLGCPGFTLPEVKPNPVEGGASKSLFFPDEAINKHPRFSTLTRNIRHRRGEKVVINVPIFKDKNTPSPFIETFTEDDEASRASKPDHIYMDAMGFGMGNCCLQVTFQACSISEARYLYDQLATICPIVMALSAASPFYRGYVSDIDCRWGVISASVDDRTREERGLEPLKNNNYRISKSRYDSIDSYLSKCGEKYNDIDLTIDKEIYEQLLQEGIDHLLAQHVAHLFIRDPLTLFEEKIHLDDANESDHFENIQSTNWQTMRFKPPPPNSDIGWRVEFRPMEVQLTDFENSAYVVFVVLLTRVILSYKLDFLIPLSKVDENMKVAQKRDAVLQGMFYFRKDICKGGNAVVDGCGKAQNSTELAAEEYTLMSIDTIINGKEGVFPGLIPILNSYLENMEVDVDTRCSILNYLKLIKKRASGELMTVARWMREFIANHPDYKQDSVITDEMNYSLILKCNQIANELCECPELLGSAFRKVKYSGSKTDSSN

[5] = cited from earlier work
[6] = cited from earlier work; for Estimtated Dose of L Isomer that Induces Convulsions in Mice (Relative to MSO): Table 1; for Estimtated Dose of L Isomer that Induces Convulsions in Mice (Relative to MSO) / Estimated Dose of L Isomer that Induces Convulsions in Mice (Relative to MSO): relative to MSO = 1; for Estimated Dose of L Isomer that Induces Convulsions in Mice (Relative to MSO): Table 3; for Dose that induces convulsions in mice relative to the dose of MSO: α-Et-MSO: convulsions in a minority of mice vs MSO in 100% of mice
[7] = BSO at doses that fully inhibit glutathione synthesis, guinea pigs; cited from earlier work
[8] = system: M. tuberculosis Erdman strain; settings: in vivo

mammalian glutamine synthetase (MGS), sequence (P15104 2-373 limits assumed): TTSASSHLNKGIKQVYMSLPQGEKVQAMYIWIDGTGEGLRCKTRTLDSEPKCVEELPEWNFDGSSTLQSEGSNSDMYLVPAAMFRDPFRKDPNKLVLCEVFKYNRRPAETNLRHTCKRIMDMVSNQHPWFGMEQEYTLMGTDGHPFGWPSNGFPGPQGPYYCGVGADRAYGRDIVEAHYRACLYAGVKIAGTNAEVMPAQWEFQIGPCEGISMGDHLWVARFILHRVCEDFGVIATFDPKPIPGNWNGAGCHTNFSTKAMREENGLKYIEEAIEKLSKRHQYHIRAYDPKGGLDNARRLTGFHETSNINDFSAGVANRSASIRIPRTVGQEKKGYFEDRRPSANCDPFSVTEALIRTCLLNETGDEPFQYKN

Row | SMILES | Efficacy against M. tuberculosis growth in broth culture in comparison with MSO [1] | Inhibition of growth of M. tuberculosis in broth culture [1] | Inhibition of M. tuberculosis in broth culture relative to MSO [1] | Inhibition of M. tuberculosis growth in human macrophages [2] | Inhibition of mammalian GS [3] | Inhibition of γ-GCS [4] | Metabolism [5] | Estimtated Dose of L Isomer that Induces Convulsions in Mice (Relative to MSO) [6] | Estimated Dose of L Isomer that Induces Convulsions in Mice (Relative to MSO) [6] | Dose that induces convulsions in mice relative to the dose of MSO [6] | Protection from weight loss, drug administered alone [8] | also measured
1 | O=C1O[C@H]([C@@H](O)CO)C(O)=C1O [ascorbate] |  |  |  |  |  |  |  |  |  |  |  | Well tolerated total dose of ascorbate (i.p., guinea pigs, 9 mmoles kg^−1 day^−1 not well tolerated): 3 mmol/kg/day
2 | CCC(N)(CCS(C)(=N)=O)C(=O)O (racemic) [α-Et-MSO, α-ethyl-DL-methionine-SR-sulfoximine] | as inhibitory to M. tuberculosis growth as MSO | inhibited M. tuberculosis | as inhibitory or slightly more inhibitory than MSO | readily inhibited | inhibit mammalian GS | specific to GS | resistant to metabolism | >16 | ≧16 | 16 fold |  | 
3 | CCCCS(=N)(=O)CCC(N)C(=O)O [BSO, D, L-Buthionine-SR-Sulfoximine, reference compound] |  | did not |  |  |  |  |  |  |  |  |  | Animals killed [7]: 100%
4 | NNC(=O)c1ccncc1 [INH, isoniazid] |  |  |  |  |  |  |  |  |  |  | protected animals from weight loss | Reduction of CFU in lung and spleen below the level obtained with MSO [8]: ~1.5 logs and ~2.5 logs
5 | CS(=N)(=O)CC[C@H](N)C(=O)O (stereo partly drawn) [MSO, L-methionine-SR-sulfoximine] |  | inhibited M. tuberculosis |  |  | inhibit mammalian GS | inhibit γ-GCS |  | 1 | 1 |  | protected animals from weight loss | Fewer CFU of M. tuberculosis in organs than control animals [8]: approximately 1 log unit; Reduction of CFU of M. tuberculosis compared with control animals [8]: ~0.7 logs; Weight loss compared with untreated control animals [8]: protected from a precipitous decline in weight loss in the final week; Reduction of CFU in the lungs and spleen compared with untreated controls ([8]; ip): 2.5 logs; MTD in the presence of ascorbate relative to MTD in the absence of ascorbate (guinea pig, in vivo): 4 fold; Maximum tolerated dose for guinea pigs infected with M. tuberculosis (guinea pig, in vivo): 1.5 mg/kg/day; Tolerability (guinea pig, in vivo): early weight loss
6 | CC(N)(CCS(C)(=N)=O)C(=O)O (racemic) [α-Me-MSO, α-methyl-DL-methionine-SR-sulfoximine] | as inhibitory to M. tuberculosis growth as MSO | inhibited M. tuberculosis | slightly less inhibitory than MSO | readily inhibited | inhibit mammalian GS | inhibit γ-GCS | resistant to metabolism | 8 | 8 | ~8 fold |  | 

From patent US20040157802A1, “Anti-microbial agents derived from methionine sulfoximine analogues” (priority 2002, published 2004)
